# Measured values taken from US12509444B2, “Compounds and methods for CD73 modulation and indications therefor” (Plexxikon Inc., priority 2019, dated 2025).
# Experiments:
# [1] = biological target: T1, Human CD73 (amino acid residues 27-549) (Homo sapiens, UniProt P21589); experiment: CD73 enzymatic assay (luciferase-based indirect assay, CellTiter-Glo); type: biochemical; conditions: 0.4 nM CD73, 150 μM AMP, 1 hour at room temperature
# T1 construct: Human CD73 (amino acid residues 27-549); His tag (N); made in house; host or cells: E. coli
# T1 sequence (P21589 27-549): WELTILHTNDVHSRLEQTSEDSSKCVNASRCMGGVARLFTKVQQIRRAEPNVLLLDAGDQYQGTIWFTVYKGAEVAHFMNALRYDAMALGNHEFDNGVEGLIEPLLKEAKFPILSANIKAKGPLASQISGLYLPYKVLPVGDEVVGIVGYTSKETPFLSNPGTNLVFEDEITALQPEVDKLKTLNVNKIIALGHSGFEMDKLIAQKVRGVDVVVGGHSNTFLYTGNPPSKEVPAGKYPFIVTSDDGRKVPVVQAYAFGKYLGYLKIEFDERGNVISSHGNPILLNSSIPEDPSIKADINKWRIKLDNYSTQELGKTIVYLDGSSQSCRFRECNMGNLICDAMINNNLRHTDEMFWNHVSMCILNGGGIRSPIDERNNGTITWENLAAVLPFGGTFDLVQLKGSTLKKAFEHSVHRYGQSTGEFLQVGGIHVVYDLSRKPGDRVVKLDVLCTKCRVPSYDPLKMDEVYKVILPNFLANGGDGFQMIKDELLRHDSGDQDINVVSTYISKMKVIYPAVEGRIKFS
# Summary of the method: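 His-tagged human CD73 (27-549) from E. coli, 0.4 nM, with 150 μM AMP in 50 mM HEPES pH 7.4, 0.01% Tween 20; 1 h at room temperature. AMP remaining read by CellTiter-Glo 2.0 luminescence with 1 μM final ATP after 30 min. IC50 from nonlinear regression of % inhibition.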
# [2] = biological target: T2, human CD73 (Homo sapiens, UniProt P21589); experiment: Inhibitor activity against CD73 in cell based assay (CD73 expressing CHO-K1 cells); conditions: CHO-K1 cells expressing human CD73, 150 μM AMP, 4 hours of incubation; read-out: CHO-K1 CELL VARIANT: CD73 IC50
# T2 construct: expressed in transfected cells
# T2 sequence (P21589 27-549): T1 sequence (P21589 27-549)
# Summary of the method: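 Stably transfected CHO-K1 cells expressing human CD73 (1×10^4/well) incubated 4 h with compound (8-point 1:3 titration, top 10 μM final, 0.2% DMSO) and 150 μM AMP. Residual AMP in supernatant measured by CellTiter-Glo luminescence with 1 μM ATP after 30 min at room temperature; IC50 by nonlinear regression of percent inhibition vs high/low controls.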
IC50 [1],IC50 [2],Compound
0.001 to 10 µM,0.001 to 10 µM,"O=C(NC1CCCC12CC2)O[C@@H]1CCN(c2cn[nH]c(=O)c2Cl)C1 (stereo partly drawn) [P-0426, (R)-1-(5-chloro-6-oxo-1,6-dihydropyridazin-4-yl)pyrrolidin-3-yl spiro[2.4]heptan-4-ylcarbamate]"
0.001 to 10 µM,0.001 to 10 µM,"N#CC12CC(NC(=O)O[C@@H]3CCN(c4cn[nH]c(=O)c4Cl)C3)(C1)C2 [P-0427, (R)-1-(5-chloro-6-oxo-1,6-dihydropyridazin-4-yl)pyrrolidin-3-yl (3-cyanobicyclo[1.1.1]pentan-1-yl)carbamate]"
0.001 to 10 µM,0.001 to 10 µM,"O=C(NC12CC(C1)C2)O[C@@H]1CCN(c2cn[nH]c(=O)c2Cl)C1 [P-0428, (R)-1-(5-chloro-6-oxo-1,6-dihydropyridazin-4-yl)pyrrolidin-3-yl bicyclo[1.1.1]pentan-1-ylcarbamate]"
0.001 to 10 µM,0.001 to 10 µM,"O=C(NC1(CO)CCCC1)O[C@@H]1CCN(c2cn[nH]c(=O)c2Cl)C1 [P-0429, (R)-1-(5-chloro-6-oxo-1,6-dihydropyridazin-4-yl)pyrrolidin-3-yl (1-(hydroxymethyl)cyclopentyl) carbamate]"
0.001 to 10 µM,10 to 100 µM,"O=C(Cn1ncc(N2CC[C@@H](OC(=O)NC3CCC(F)(F)CC3)C2)c(Cl)c1=O)NO [P-0430, (R)-1-(5-chloro-1-(2-(hydroxyamino)-2-oxoethyl)-6-oxo-1,6-dihydropyridazin-4-yl)pyrrolidin-3-yl (4,4-difluorocyclohexyl)carbamate]"
0.001 to 10 µM,0.001 to 10 µM,"O=C(NC1CC(F)(F)C1)O[C@@H]1CCN(c2cnn(CCO)c(=O)c2Cl)C1 [P-0431, (R)-1-(5-chloro-1-(2-hydroxyethyl)-6-oxo-1,6-dihydropyridazin-4-yl)pyrrolidin-3-yl (3,3-difluorocyclobutyl)carbamate]"
0.001 to 10 µM,0.001 to 10 µM,"CC1(NC(=O)O[C@@H]2CCN(c3cn[nH]c(=O)c3Cl)C2)CC(F)(F)C1 [P-0432, (R)-1-(5-chloro-6-oxo-1,6-dihydropyridazin-4-yl)pyrrolidin-3-yl (3,3-difluoro-1-methylcyclobutyl)carbamate]"
0.001 to 10 µM,0.001 to 10 µM,"O=C(NC12CC(F)(C1)C2)O[C@@H]1CCN(c2cn[nH]c(=O)c2Cl)C1 [P-0433, (R)-1-(5-chloro-6-oxo-1,6-dihydropyridazin-4-yl)pyrrolidin-3-yl (3-fluorobicyclo[1.1.1]pentan-1-yl)carbamate]"
0.001 to 10 µM,0.001 to 10 µM,"O=C(N[C@H]1CC[C@@H](NC2CCC2)CC1)O[C@@H]1CCN(c2cn[nH]c(=O)c2Cl)C1 [P-0434, (R)-1-(5-chloro-6-oxo-1,6-dihydropyridazin-4-yl)pyrrolidin-3-yl ((1s,4S)-4-(cyclobutylamino)cyclohexyl) carbamate]"
0.001 to 10 µM,0.001 to 10 µM,"NCCn1ncc(N2CC[C@@H](OC(=O)N[C@H]3CC[C@@H](NC(=O)NC4CC4)CC3)C2)c(Cl)c1=O [P-0435, (R)-1-(1-(2-aminoethyl)-5-chloro-6-oxo-1,6-dihydropyridazin-4-yl)pyrrolidin-3-yl ((1s,4S)-4-(3-cyclopropylureido)cyclohexyl) carbamate]"
0.001 to 10 µM,0.001 to 10 µM,"C#CC1(NC(=O)O[C@@H]2CCN(c3cn[nH]c(=O)c3Cl)C2)CCCCC1 [P-0436, (R)-1-(5-chloro-6-oxo-1,6-dihydropyridazin-4-yl)pyrrolidin-3-yl (1-ethynylcyclohexyl)carbamate]"
0.001 to 10 µM,0.001 to 10 µM,"CC1(NC(=O)O[C@@H]2CCN(c3cn[nH]c(=O)c3Cl)C2)CCC(F)(F)CC1 [P-0437, (R)-1-(5-chloro-6-oxo-1,6-dihydropyridazin-4-yl)pyrrolidin-3-yl (4,4-difluoro-1-methylcyclohexyl)carbamate]"
0.001 to 10 µM,0.001 to 10 µM,"O=C(NC1CCN(C(=O)Nc2ncccc2F)CC1)O[C@@H]1CCN(c2cn[nH]c(=O)c2Cl)C1 [P-0438, (R)-1-(5-chloro-6-oxo-1,6-dihydropyridazin-4-yl)pyrrolidin-3-yl (1-((3-fluoropyridin-2-yl)carbamoyl)piperidin-4-yl)carbamate]"
0.001 to 10 µM,0.001 to 10 µM,"CC1(NC(=O)O[C@@H]2CCN(c3cnn(CCO)c(=O)c3Cl)C2)CC(F)(F)C1 [P-0439, (R)-1-(5-chloro-1-(2-hydroxyethyl)-6-oxo-1,6-dihydropyridazin-4-yl)pyrrolidin-3-yl (3,3-difluoro-1-methylcyclobutyl)carbamate]"
0.001 to 10 µM,0.001 to 10 µM,"O=C(NC1C2CCC1CC(F)(F)C2)O[C@@H]1CCN(c2cn[nH]c(=O)c2Cl)C1 (stereo partly drawn) [P-0440, (R)-1-(5-chloro-6-oxo-1,6-dihydropyridazin-4-yl)pyrrolidin-3-yl (3,3-difluorobicyclo[3.2.1]octan-8-yl)carbamate]"
0.001 to 10 µM,0.001 to 10 µM,"O=C(NC1CC2C(C1)C2(F)F)O[C@@H]1CCN(c2cn[nH]c(=O)c2Cl)C1 (stereo partly drawn) [P-0441, (R)-1-(5-chloro-6-oxo-1,6-dihydropyridazin-4-yl)pyrrolidin-3-yl (6,6-difluorobicyclo[3.1.0]hexan-3-yl)carbamate]"
0.001 to 10 µM,0.001 to 10 µM,"COc1ccc(CC(=O)N2CCC(NC(=O)O[C@@H]3CCN(c4cn[nH]c(=O)c4Cl)C3)CC2)cc1 [P-0442, (R)-1-(5-chloro-6-oxo-1,6-dihydropyridazin-4-yl)pyrrolidin-3-yl (1-(2-(4-methoxyphenyl)acetyl)piperidin-4-yl)carbamate]"
0.001 to 10 µM,0.001 to 10 µM,"O=C(NC1CCN(C(=O)Cc2ccc(F)cc2)CC1)O[C@@H]1CCN(c2cn[nH]c(=O)c2Cl)C1 [P-0443, (R)-1-(5-chloro-6-oxo-1,6-dihydropyridazin-4-yl)pyrrolidin-3-yl (1-(2-(4-fluorophenyl)acetyl)piperidin-4-yl)carbamate]"
0.001 to 10 µM,0.001 to 10 µM,"O=C(NC1CCN(C(=O)Cc2ccc(Cl)c(F)c2)CC1)O[C@@H]1CCN(c2cn[nH]c(=O)c2Cl)C1 [P-0444, (R)-1-(5-chloro-6-oxo-1,6-dihydropyridazin-4-yl)pyrrolidin-3-yl (1-(2-(4-chloro-3-fluorophenyl)acetyl)piperidin-4-yl)carbamate]"
0.001 to 10 µM,0.001 to 10 µM,"O=C(NC1CCN(C(=O)Cc2ccc(F)c(Cl)c2)CC1)O[C@@H]1CCN(c2cn[nH]c(=O)c2Cl)C1 [P-0445, (R)-1-(5-chloro-6-oxo-1,6-dihydropyridazin-4-yl)pyrrolidin-3-yl (1-(2-(3-chloro-4-fluorophenyl)acetyl)piperidin-4-yl)carbamate]"
0.001 to 10 µM,0.001 to 10 µM,"O=C(NC1CC2CCC2C1)O[C@@H]1CCN(c2cn[nH]c(=O)c2Cl)C1 (stereo partly drawn) [P-0446, (R)-1-(5-chloro-6-oxo-1,6-dihydropyridazin-4-yl)pyrrolidin-3-yl bicyclo[3.2.0]heptan-3-ylcarbamate]"
0.001 to 10 µM,0.001 to 10 µM,"O=C(N[C@@H]1CCC[C@H]1F)O[C@@H]1CCN(c2cn[nH]c(=O)c2Cl)C1 [P-0447, (R)-1-(5-chloro-6-oxo-1,6-dihydropyridazin-4-yl)pyrrolidin-3-yl ((1R,2R)-2-fluorocyclopentyl)carbamate]"
0.001 to 10 µM,0.001 to 10 µM,"O=C(NC12CCC(F)(CC1)C2)O[C@@H]1CCN(c2cn[nH]c(=O)c2Cl)C1 [P-0448, (R)-1-(5-chloro-6-oxo-1,6-dihydropyridazin-4-yl)pyrrolidin-3-yl (4-fluorobicyclo[2.2.1]heptan-1-yl)carbamate]"
0.001 to 10 µM,0.001 to 10 µM,"O=C(NC1CC2CC2C1)O[C@@H]1CCN(c2cnn(CCO)c(=O)c2Cl)C1 (stereo partly drawn) [P-0449, (R)-1-(5-chloro-1-(2-hydroxyethyl)-6-oxo-1,6-dihydropyridazin-4-yl)pyrrolidin-3-yl bicyclo[3.1.0]hexan-3-ylcarbamate]"
0.001 to 10 µM,0.001 to 10 µM,"CC1CCCC1NC(=O)O[C@@H]1CCN(c2cnn(CCO)c(=O)c2Cl)C1 (stereo partly drawn) [P-0450, (R)-1-(5-chloro-1-(2-hydroxyethyl)-6-oxo-1,6-dihydropyridazin-4-yl)pyrrolidin-3-yl (2-methylcyclopentyl)carbamate]"
0.001 to 10 µM,0.001 to 10 µM,"O=C(NC1CC2CCC1O2)O[C@@H]1CCN(c2cnn(CCO)c(=O)c2Cl)C1 (stereo partly drawn) [P-0451, (R)-1-(5-chloro-1-(2-hydroxyethyl)-6-oxo-1,6-dihydropyridazin-4-yl)pyrrolidin-3-yl (7-oxabicyclo[2.2.1]heptan-2-yl)carbamate]"
0.001 to 10 µM,0.001 to 10 µM,"CC1(NC(=O)O[C@@H]2CCN(c3cnn(CCO)c(=O)c3Cl)C2)CCCC1 [P-0452, (R)-1-(5-chloro-1-(2-hydroxyethyl)-6-oxo-1,6-dihydropyridazin-4-yl)pyrrolidin-3-yl (1-methylcyclopentyl)carbamate]"
